In patent US20070059720A9 (priority 2004, published 2007):
Where two headings read alike, the source gives them in different places.

Assays:
ERK 1,2 MAPK = assay: Immunoblot of phospho-MAPK in MCF-7 transfectants; assay type: cell-based, human
Description: (§1) Cells grown in 100 mm dishes were starved in phenol red-free (PRF), serum-free MEM (Specialty Media, Phillipsburg, N.J.) for 48 hours, and were then treated for 2 hours with vehicle (ethanol), estrogen (100 nM, 20), or OHT (100 nM). After treatment, cells were rinsed twice with ice-cold phosphate-buffered saline (PBS) and were then lysed immediately with 200 μl of cell lysis buffer (20 mM Tris HCl, pH 7.4, 150 mM NaCl, 1 mM B-glycerophosphate, 1 mM sodium orthovanadate, and 10% glycerol plus 1:100 proteinase inhibitor cocktail III) (Calbiochem, LaJolla, Calif.) per 100 mm tissue culture. The cell lysates were cleared by centrifugation at 16,100×g for 10 minutes at 4° C. Protein concentration was determined with the BCA Protein Assay kit (Pierce, Rockfold, Ill.) according to the manufacturer's directions. Equal amount of cell extracts were resolved under denaturing conditions by electrophoresis in 8-10% polyacrylamide gels containing sodium dodecyl sulfate (SDS-PAGE), and transferred to nitrocellulose membranes by electroblotting (Schleicher & Schuell, Keene, NH). After blocking of the transferred nitrocellulose membrane with TBST (20 mM Tris pH 7.6, 150 mM NaCl, 0.1% Tween-20) supplemented with 5% non-fat milk for 1 hour at room temperature, the membrane was incubated with primary antibodies either for 1 hour at room temperature (anti-ERα, 1:100 dilution; anti-AIB1, 1:100 dilution; anti-ERK2, 1:500 dilution; anti-Cyclin D1,1:500 dilution; anti-PR, C-19, 1:200 dilution; anti-p190, 1:1000 dilution; anti-V5, 1:5000 dilution), or overnight at 4° C. (anti-phospho MAPK, 1:1000 dilution; anti-phosphor-Ser118-ERα; 1:1000 dilution; MAPK p42/44, 1:1000 dilution), incubated with secondary antibodies for 1 hour at room temperature and then developed with Enhanced Chemiluminescence Reagents (Amersham Pharmacia Biotech, Piscataway, N.J.).
MAPK activity is tightly regulated by phosphorylation and dephosphorylation. MKP3 participates in a bidirectional regulatory loop with ERK2 MAPK, whereby ERK2 substrate binding is associated with catalytic activation of MKP3, and activated MKP3 negatively regulates pERK2 (Camps et al., 1998). […] Immunoblot analysis with anti-V5 was used to detect ectopic MKP3 expression in the two MKP3 transfectants (FIG. 5A, top panel). FIGS. 5B and 5C provide quantitation of results in FIG. 5A.

MCF-7-MKP3 cells = assay: Anchorage-independent soft agar colony formation, MKP3-overexpressing MCF-7 transfectants; assay type: cell-based, human; conditions: MKP3-transfected cells; 100 nM OHT plus 10 nM ICI or 20 nM
Description: MCF-7 cells were originally obtained from Dr. Benita Katzenellebogen, but have been maintained in the inventors' laboratory for over 10 years (Fuqua et al., 2000). MCF-7 cells were maintained in Minimal Essential Medium (MEM, InVitrogen) supplemented with 5% fetal bovine serum (Summit Biotechnology, Fort Collins, Colo.), 200 U/ml penicillin, and 200 μg/ml streptomycin. Cells were incubated at 37° C. in 5% CO2. To generate MCF-7 cells stably overexpressing MKP3, 5 μg of the plasmid pcDNA3-MKP3-V5 (Furukawa et al., 2003) or empty vector (pcDNA3-His-V5, InVitrogen), were transfected into the cells using Fugene 6 reagent Roche Clinical Laboratories, Indianapolis, Ind.) in 100 mm tissue culture dishes following the manufacturer's protocol. Stable clones overexpressing MKP3 were selected as described (Fuqua et al., 2000), and positive clones were identified using immunoblot analysis with an anti-V5 antibody (1:5000 dilution)
(§2) Cells were starved for 2 days in PRF MEM (InVitrogen) supplemented with 5% fetal bovine serum (FBS, Summit Biotechnology, Fort Collins, Colo.), 6 ng/ml insulin, 200 units/ml penicillin, and 200 μg/ml streptomycin. Soft agar assays were performed in sixwell plates. Into each well, 1.5 ml of prewarmed (50° C.) 0.7% SeaPlaque agarose (FMC, Rockland, Me.) was added and dissolved in PRF MEM supplemented with 5% charcoal stripped FBS (Summit, Fort Collins, Colo.) to serve as the bottom layer, and allowed to solidify at 4° C. until to use. 0.5×10^4 cells as a single cell suspension were suspended in prewarmed (37° C.) of the same media, 4 ml of 0.5% SeaPlaque agarose was then added, and this suspension then plated as the top layer by adding it dropwise to the solidified bottom layer plates. Plates were cooled for 2 hours, and then transferred to a 37° C. humidified incubator. Two days after plating, media containing control vehicle, 1 nM estradiol, 100 nM 4-OH-Tam, 100 nM OHT plus 10 nM ICI, or 100 nM OHT plus 20 nM […] was added to the top cell layer, and the appropriate media was replaced every two days. After 14 days, the colonies were fixed, and the colony number of colonies >50 cells from quadruplicate assays were then counted. The data shown is the mean colony number of four plates, and is representative of two independent experiments.
(§3) In pancreatic cells, ectopic expression of MKP3 is reported to result in a suppression of cell growth (Fuqua et al., 2003). Thus, the growth characteristics of the MCF-7 stable MKP3 transfectants under different hormonal conditions were investigated using anchorageindependent soft agar assay (FIG. 4B).

ERα = assay: Immunoblot of phospho-S118 ERα and total ERα in MCF-7 transfectants; assay type: cell-based, human; conditions: control and Tam-treated MKP3.2 cells
Description: as §1

[1] = system: MCF-7 vector control cells; assay: Anchorage-independent soft agar colony formation, MCF-7 vector control cells; assay type: cell-based, human; conditions: vector control cells; 100 nM OHT plus 10 nM ICI or 20 nM PD98065
Description: as §2, §3

[2] = system: progesterone receptor (PR) A and B forms; assay: Immunoblot of PR-A and PR-B in MCF-7 transfectants; assay type: cell-based, human; conditions: MKP3 overexpressing cells
Description: as §1
(§4) As expected with two hours of estrogen treatment, no induction of the two PR isoforms were detected in either the control vector (Con 1 and 2), or in the MKP3-transfected cells (FIG. 11A). […]

cyclin D1 (CCND1) = assay: Immunoblot of CCND1 in MCF-7 transfectants; assay type: cell-based, human; conditions: MKP3 overexpressing cells
Description: (§5) Cells grown in 100 mm dishes were starved in phenol red-free (PRF), serum-free MEM (Specialty Media, Phillipsburg, N.J.) for 48 hours, and were then treated for 2 hours with vehicle (ethanol), estrogen (100 nM, 20), or OHT (100 nM). After treatment, cells were rinsed twice with ice-cold phosphate-buffered saline (PBS) and were then lysed immediately with 200 μl of cell lysis buffer (20 mM Tris HCl, pH 7.4, 150 mM NaCl, 1 mM B-glycerophosphate, 1 mM sodium orthovanadate, and 10% glycerol plus 1:100 proteinase inhibitor cocktail III) (Calbiochem, LaJolla, Calif.) per 100 mm tissue culture. The cell lysates were cleared by centrifugation at 16,100×g for 10 minutes at 4° C. Protein concentration was determined with the BCA Protein Assay kit (Pierce, Rockfold, Ill.) according to the manufacturer's directions. Equal amount of cell extracts were resolved under denaturing conditions by electrophoresis in 8-10% polyacrylamide gels containing sodium dodecyl sulfate (SDS-PAGE), and transferred to nitrocellulose membranes by electroblotting (Schleicher & Schuell, Keene, NH). […]
as §4

JNK = assay: Immunoblot of phospho-JNK in MCF-7 transfectants; assay type: cell-based, human; conditions: vector control cells treated with the inhibitor
Description: as §5

breast cancer = conditions: cited from earlier work
TR breast cancer = conditions: second-line therapy; cited from earlier work

Row | Compound | effect on the increase in pMAPK (ERK 1,2 MAPK; control and Tam-treated MKP3.2 cells) | effect on activation of MAPK (ERK 1,2 MAPK; vector control cells, all treatment conditions) | effect on Tam-induced colony formation (MCF-7-MKP3 cells) | effect on the increase in pS118 ERα (ERα) | effect on Tam-induced colony formation [1] | effect on PR-B levels in Tam-treated cells [2] | effect on tamoxifen induction of CCND1 (cyclin D1 (CCND1)) | pJNK level (JNK) | benefit compared to tamoxifen (breast cancer; ER+/PR+ group) | benefit compared to tamoxifen (breast cancer; ER+/PR− subgroup) | share of TR breast cancer patients who respond (TR breast cancer)
1 | COc1cccc(-c2cc(=O)c3ccccc3o2)c1N [PD98059] | effectively inhibited | blocked activation of MAPK | completely blocked | effectively inhibited | completely blocked | restored | blocked | elevated | – | – | –
2 | CC(C)(C#N)c1cc(Cn2cncn2)cc(C(C)(C)C#N)c1 [anastrazole] | – | – | – | – | – | – | – | – | modest advantage | major benefit | –
3 | C[C@]12CC[C@@H]3c4ccc(O)cc4C[C@@H](CCCCCCCCC[S+]([O-])CCCC(F)(F)C(F)(F)F)[C@H]3[C@@H]1CC[C@@H]2O (stereo partly shown) [ICI182,780] | – | – | completely blocked | – | completely blocked | – | – | – | – | – | About two-thirds
